Experiments:
[1] = molecular target: T1, EZH2 (wild type PRC2 complex) (Homo sapiens, UniProt Q15910); assay: in vitro methyltransferase assay with recombinant PRC2 and histone H3.[…], western blot readout; assay type: biochemical
T1 construct: wild type PRC2 complex (31387, Active Motif); with PRC2 complex (EED, SUZ12)

EZH2 (zEZH2) = EZH2 (zEZH2) (Danio rerio, UniProt Q08BS4); assay: SPR (Biacore T200), EZH2 immobilized on CM5 chip; assay type: binding
EED (hEED) = EED (hEED) (Homo sapiens, UniProt O75530); assay: SPR (Biacore T200), EED immobilized on CM5 chip; assay type: binding
Chain of EED (hEED) (O75530 2-441): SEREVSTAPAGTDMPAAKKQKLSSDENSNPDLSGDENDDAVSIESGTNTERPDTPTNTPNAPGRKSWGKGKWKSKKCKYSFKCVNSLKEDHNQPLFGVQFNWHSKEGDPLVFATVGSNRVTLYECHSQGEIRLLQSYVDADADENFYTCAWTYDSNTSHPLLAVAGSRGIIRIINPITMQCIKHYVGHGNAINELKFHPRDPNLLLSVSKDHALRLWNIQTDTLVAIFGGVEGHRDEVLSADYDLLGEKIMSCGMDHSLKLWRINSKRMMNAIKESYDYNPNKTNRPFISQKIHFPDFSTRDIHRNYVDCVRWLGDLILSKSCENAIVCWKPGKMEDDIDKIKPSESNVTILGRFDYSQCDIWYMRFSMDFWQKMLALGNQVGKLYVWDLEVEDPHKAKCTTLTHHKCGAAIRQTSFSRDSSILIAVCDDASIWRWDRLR

T1 sequence (Q15910 whole entry): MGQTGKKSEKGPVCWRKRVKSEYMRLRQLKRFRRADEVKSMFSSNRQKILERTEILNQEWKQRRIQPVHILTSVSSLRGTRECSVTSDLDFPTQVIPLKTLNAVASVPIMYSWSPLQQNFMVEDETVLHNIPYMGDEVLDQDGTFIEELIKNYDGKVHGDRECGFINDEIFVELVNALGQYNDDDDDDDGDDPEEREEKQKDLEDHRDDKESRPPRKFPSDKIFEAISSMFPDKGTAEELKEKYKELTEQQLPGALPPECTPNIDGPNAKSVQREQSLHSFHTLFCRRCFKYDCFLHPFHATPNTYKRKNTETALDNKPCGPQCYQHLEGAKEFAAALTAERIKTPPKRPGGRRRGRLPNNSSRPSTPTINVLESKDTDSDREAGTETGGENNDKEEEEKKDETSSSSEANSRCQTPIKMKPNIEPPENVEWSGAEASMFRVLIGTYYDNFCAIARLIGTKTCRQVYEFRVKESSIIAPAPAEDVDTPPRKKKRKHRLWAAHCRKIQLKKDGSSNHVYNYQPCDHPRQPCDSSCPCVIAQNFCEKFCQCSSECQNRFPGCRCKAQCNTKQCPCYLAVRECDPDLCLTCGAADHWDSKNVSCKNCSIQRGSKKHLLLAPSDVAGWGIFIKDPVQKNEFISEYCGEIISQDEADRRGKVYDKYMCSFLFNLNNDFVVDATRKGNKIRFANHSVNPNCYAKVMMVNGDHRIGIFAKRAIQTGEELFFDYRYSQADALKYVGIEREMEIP
T1 sequence (O75530 2-441 partner): as the sequence (O75530 2-441) above
T1 sequence (Q15022 whole entry partner): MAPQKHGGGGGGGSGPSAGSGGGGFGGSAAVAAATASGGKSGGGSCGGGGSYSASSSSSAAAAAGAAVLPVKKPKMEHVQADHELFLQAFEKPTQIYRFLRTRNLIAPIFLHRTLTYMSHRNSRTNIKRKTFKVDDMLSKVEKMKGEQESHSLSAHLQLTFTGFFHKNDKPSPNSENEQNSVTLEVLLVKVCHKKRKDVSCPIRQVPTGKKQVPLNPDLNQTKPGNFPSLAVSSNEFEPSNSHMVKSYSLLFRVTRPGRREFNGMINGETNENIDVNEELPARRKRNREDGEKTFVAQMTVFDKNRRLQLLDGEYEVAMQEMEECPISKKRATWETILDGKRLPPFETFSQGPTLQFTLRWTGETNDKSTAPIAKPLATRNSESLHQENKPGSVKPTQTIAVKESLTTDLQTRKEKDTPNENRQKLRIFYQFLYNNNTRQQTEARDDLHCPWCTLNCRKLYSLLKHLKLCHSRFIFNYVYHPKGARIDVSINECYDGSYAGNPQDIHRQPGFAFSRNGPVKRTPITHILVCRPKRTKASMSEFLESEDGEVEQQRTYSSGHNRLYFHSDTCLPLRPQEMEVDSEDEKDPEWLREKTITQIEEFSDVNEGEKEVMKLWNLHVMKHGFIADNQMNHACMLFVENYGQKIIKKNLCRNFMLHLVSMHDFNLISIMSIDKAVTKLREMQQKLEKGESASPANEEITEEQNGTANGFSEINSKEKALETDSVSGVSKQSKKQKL
T1 sequence (Q09028 2-425 partner): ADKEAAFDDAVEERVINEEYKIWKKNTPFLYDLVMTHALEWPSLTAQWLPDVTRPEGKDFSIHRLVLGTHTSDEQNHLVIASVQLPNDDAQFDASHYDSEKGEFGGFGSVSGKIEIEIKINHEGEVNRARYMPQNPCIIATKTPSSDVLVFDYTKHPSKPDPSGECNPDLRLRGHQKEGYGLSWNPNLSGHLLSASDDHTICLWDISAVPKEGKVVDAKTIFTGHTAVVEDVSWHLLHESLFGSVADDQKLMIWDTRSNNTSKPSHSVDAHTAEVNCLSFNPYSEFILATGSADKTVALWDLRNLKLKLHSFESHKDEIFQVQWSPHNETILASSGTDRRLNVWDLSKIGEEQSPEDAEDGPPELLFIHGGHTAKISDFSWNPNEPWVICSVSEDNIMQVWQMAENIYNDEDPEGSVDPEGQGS
T1 sequence (Q6ZN18 2-517 partner): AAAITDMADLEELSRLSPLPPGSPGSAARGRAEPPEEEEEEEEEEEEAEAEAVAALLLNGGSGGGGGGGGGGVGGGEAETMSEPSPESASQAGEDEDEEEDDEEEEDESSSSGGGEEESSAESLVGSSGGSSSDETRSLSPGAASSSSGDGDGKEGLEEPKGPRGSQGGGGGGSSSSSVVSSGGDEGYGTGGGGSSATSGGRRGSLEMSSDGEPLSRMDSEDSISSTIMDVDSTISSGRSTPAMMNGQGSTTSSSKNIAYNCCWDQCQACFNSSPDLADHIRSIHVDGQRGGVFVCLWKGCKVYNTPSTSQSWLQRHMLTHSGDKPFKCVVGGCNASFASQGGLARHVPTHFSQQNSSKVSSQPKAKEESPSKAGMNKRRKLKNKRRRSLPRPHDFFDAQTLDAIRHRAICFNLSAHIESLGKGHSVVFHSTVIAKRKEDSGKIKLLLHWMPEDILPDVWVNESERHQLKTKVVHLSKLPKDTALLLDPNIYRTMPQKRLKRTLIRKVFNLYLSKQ
Chain of EZH2 (zEZH2) (Q08BS4 whole entry): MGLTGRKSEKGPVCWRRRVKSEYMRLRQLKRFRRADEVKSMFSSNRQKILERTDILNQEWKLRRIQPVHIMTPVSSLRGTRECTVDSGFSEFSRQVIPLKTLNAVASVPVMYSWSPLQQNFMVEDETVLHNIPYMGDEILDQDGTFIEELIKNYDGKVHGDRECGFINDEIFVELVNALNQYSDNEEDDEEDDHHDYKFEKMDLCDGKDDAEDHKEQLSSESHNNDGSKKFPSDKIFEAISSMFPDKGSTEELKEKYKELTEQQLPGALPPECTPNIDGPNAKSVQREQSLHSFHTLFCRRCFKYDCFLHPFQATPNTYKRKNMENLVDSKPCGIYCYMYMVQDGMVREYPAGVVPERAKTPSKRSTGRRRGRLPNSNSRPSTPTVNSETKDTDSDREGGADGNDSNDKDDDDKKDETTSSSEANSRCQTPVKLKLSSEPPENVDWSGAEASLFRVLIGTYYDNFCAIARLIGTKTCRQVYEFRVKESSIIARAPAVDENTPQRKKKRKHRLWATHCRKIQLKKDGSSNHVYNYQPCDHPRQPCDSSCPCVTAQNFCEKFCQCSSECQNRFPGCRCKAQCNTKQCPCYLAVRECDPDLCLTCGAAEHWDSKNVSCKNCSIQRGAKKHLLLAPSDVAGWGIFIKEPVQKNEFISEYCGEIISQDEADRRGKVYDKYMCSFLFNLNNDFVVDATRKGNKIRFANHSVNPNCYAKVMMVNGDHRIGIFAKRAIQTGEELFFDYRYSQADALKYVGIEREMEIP

Structure (SMILES): Cc1coc2c1C(=O)C(=O)c1c-2ccc2c(C)cccc12 [Tan I, Tanshinone I]
- in vitro methyltransferase assay with recombinant PRC2 and histone H3.3, western [1]: ~ 5 μM
- Kd (EZH2 (zEZH2)): 29.4 µM
- Kd (EED (hEED)): 94.5 µM

— paper PMC8171091, “Tanshinone I, a new EZH2 inhibitor restricts normal and malignant hematopoiesis through upregulation of MMP9 and ABCG2” (Theranostics, 2021)
